The target in test [1] is T1, HSP90α protein (Homo sapiens, UniProt P07900).
T1 construct: purchased BPS Bioscience #50298
The experiment in a line: HSP90α-binding FP (BODIPY) assay. To be noted: FP competition with BODIPY-labeled RNK04010. As for the experimental part: Binding of test compounds to HSP90α protein was measured by fluorescent polarization (FP) using the HSP90α (N-terminal) Assay Kit (BPS Bioscience, #50298), following the manufacturer's instructions, except as noted. Fluorescently labeled HSP90-binding compounds, either the provided FITC-geldanamycin (5 nM final concentration) or RNK04010, a triazolone-based HSP90 binding small molecule labeled with BODIPY through a piperazine-phenyl linker (5 nM final concentration) were employed. A 2.5-fold serial dilution of each test compound ranging from 20 μM to 5.2 nM was assayed for binding to HSP90α. After the final step of adding HSP90α protein to each assay well, plates were mixed by brief shaking, incubated at 25° C. for 120 min for FITC-geldanamycin or 300 min for RNK04010, and fluorescence was measured using a PerkinElmer EnVision Plate Reader.

Test [2] relates to MV-4-11 human acute myeloid leukemia. The test is described as follows: MV-4-11 CCK-8 proliferation assay. It is filed as cell-based. As to conditions: Homo sapiens, MV4-11; MV-4-11 cells, 72 hr. A digest of the protocol:
(§1)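 Lines were maintained according to ATCC guidance. Compounds were then applied as a 3-fold titration from 20 μM to 1.02 nM, and proliferation was measured by CCK-8 absorbance, normalised to DMSO controls minus a no-cell blank.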

The test system of test [3] is U-87 MG human glioblastoma. The experiment in a line: U87 MG CCK-8 proliferation assay. It is filed as cell-based. As to conditions: Homo sapiens, U-87 MG, 72 h, U-87 MG cells, read-out: U87MG CCK-8. A digest of the protocol: as §1
On the technique in general: Formazan colour is commonly taken as a measure of viable cells.

SMILES strings stand for the structures.

Our source for the IC50 and EC50 values is patent US20240124460A1, “METHODS AND COMPOSITIONS FOR TARGETED PROTEIN DEGRADATION” (Ranok Therapeutics (Hangzhou) Co. Ltd., priority 2020, published 2024).

One may read the IC50 as the point on the concentration scale where inhibition reaches its midpoint.

In the case of `CCNC(=O)c1nnc(-c2cc(CC)c(O)cc2O)n1-c1ccc(CN2CCN(CC3CCN(C(=O)C4CCN(c5ccc(Nc6ncc7c(n6)N(C)c6ccccc6C(=O)N7C)c(OCC)c5)CC4)CC3)CC2)cc1` [Compound 134, 4-(4-((4-((1-(1-(4-((5,11-dimethyl-6-oxo-6,11-dihydro-5H-benzo[e]pyrimido[5,4-b][1,4]diazepin-2-yl)amino)-3-ethoxyphenyl)piperidine-4-carbonyl)piperidin-4-yl)methyl)piperazin-1-yl)methyl)phenyl)-N-ethyl-5-(5-ethyl-2,4-dihydroxyphenyl)-4H-1,2,4-triazole-3-carboxamide], the IC50 in test [1] was less than 100 nM. Further, the EC50 in test [2] and in test [3] was less than 100 nM each time.

Consider `CCCc1cc(-c2nnc(O)n2-c2ccc(CNC(=O)C3CCN(c4ccc(Nc5ncc6c(n5)N(S(C)(=O)=O)c5ccccc5C(=O)N6C)c(OCC)c4)CC3)cc2)c(O)cc1O` [Compound 074, N-(4-(3-(2,4-dihydroxy-5-propylphenyl)-5-hydroxy-4H-1,2,4-triazol-4-yl)benzyl)-1-(3-ethoxy-4-((5-methyl-11-(methylsulfonyl)-6-oxo-6,11-dihydro-5H-benzo[e]pyrimido[5,4-b][1,4]diazepin-2-yl)amino)phenyl)piperidine-4-carboxamide], for which the IC50 in test [1] is more than 1000 nM. For the same compound, the EC50 in test [2] was 100 to 1000 nM; in test [3], more than 1000 nM.

With `CCOc1cc(N2CCC(C(=O)N3CCC(CN4CCC(Cc5ccc(-n6c(O)nnc6-c6cc(C(C)C)c(O)cc6O)cc5)CC4)CC3)CC2)ccc1Nc1ncc2c(n1)N(C)c1ccccc1C(=O)N2C` [Compound 044, 2-((4-(4-(4-((4-(4-(3-(2,4-dihydroxy-5-isopropylphenyl)-5-hydroxy-4H-1,2,4-triazol-4-yl)benzyl)piperidin-1-yl)methyl)piperidine-1-carbonyl)piperidin-1-yl)-2-ethoxyphenyl)amino)-5,11-dimethyl-5,11-dihydro-6H-benzo[e]pyrimido[5,4-b][1,4]diazepin-6-one], the IC50 in test [1] was less than 100 nM. The EC50 in test [2] and in test [3] was less than 100 nM each time.

`CCOc1cc(N2CCC(C(=O)N3CCC(CN4CCN(CCCOc5ccc(Nc6ccc(-n7nc(C(F)(F)F)c8c7CC(C)(C)CC8=O)cc6C(N)=O)cc5)CC4)CC3)CC2)ccc1Nc1ncc2c(n1)N(S(C)(=O)=O)c1ccccc1C(=O)N2C` [Compound 068, 5-(6,6-dimethyl-4-oxo-3-(trifluoromethyl)-4,5,6,7-tetrahydro-1H-indazol-1-yl)-2-((4-(3-(4-((1-(1-(3-ethoxy-4-((5-methyl-11-(methylsulfonyl)-6-oxo-6,11-dihydro-5H-benzo[e]pyrimido[5,4-b][1,4]diazepin-2-yl)amino)phenyl)piperidine-4-carbonyl)piperidin-4-yl)methyl)piperazin-1-yl)propoxy)phenyl)amino)benzamide]: in test [1], the IC50 is more than 1000 nM. Moreover, the EC50 was 100 to 1000 nM in test [2] and more than 1000 nM in test [3].

Regarding `CCOc1cc(N2CCC(C(=O)NCc3ccc(-n4c(O)nnc4-c4cc(C(C)C)c(O)cc4O)cc3)CC2)ccc1Nc1ncc2c(n1)N(S(C)(=O)=O)c1ccccc1C(=O)N2C` [Compound 080, N-(4-(3-(2,4-dihydroxy-5-isopropylphenyl)-5-hydroxy-4H-1,2,4-triazol-4-yl)benzyl)-1-(3-ethoxy-4-((5-methyl-11-(methylsulfonyl)-6-oxo-6,11-dihydro-5H-benzo[e]pyrimido[5,4-b][1,4]diazepin-2-yl)amino)phenyl)piperidine-4-carboxamide], in test [1], the IC50 lay in the range of 100 to 1000 nM. Moreover, the EC50 was less than 100 nM in test [2] and more than 1000 nM in test [3].

Turning to `CCCc1cc(-c2nnc(O)n2-c2ccc(CN3CCN(CC4CCN(C(=O)C5CCN(c6ccc(Nc7ncc8c(n7)N(C)c7ccccc7C(=O)N8C)c(OCC)c6)CC5)CC4)CC3)cc2)c(O)cc1O` [Compound 020, 2-((4-(4-(4-((4-(4-(3-(2,4-dihydroxy-5-propylphenyl)-5-hydroxy-4H-1,2,4-triazol-4-yl)benzyl)piperazin-1-yl)methyl)piperidine-1-carbonyl)piperidin-1-yl)-2-ethoxyphenyl)amino)-5,11-dimethyl-5,11-dihydro-6H-benzo[e]pyrimido[5,4-b][1,4]diazepin-6-one], in test [1], the IC50 lay within 100 to 1000 nM. Further, the EC50 in test [2] and in test [3] was 100 to 1000 nM in each case.

Take `CCOc1cc(N2CCC(C(=O)N3CCN(Cc4ccc(-n5c(O)nnc5-c5cc(C(C)C)c(O)cc5O)cc4C(F)(F)F)CC3)CC2)ccc1Nc1ncc2c(n1)N(C)c1ccccc1C(=O)N2C` [Compound 046, 2-((4-(4-(4-(4-(3-(2,4-dihydroxy-5-isopropylphenyl)-5-hydroxy-4H-1,2,4-triazol-4-yl)-2-(trifluoromethyl)benzyl)piperazine-1-carbonyl)piperidin-1-yl)-2-ethoxyphenyl)amino)-5,11-dimethyl-5,11-dihydro-6H-benzo[e]pyrimido[5,4-b][1,4]diazepin-6-one]: in test [1], the IC50 was in the range of 100 to 1000 nM. For the same compound, the EC50 was less than 100 nM in test [2] and 100 to 1000 nM in test [3].

Regarding `CCOc1cc(N2CCC(C(=O)N3CCC(CN4CCN(CCOc5ccc(Nc6cc(-n7nc(C(F)(F)F)c8c7CC(C)(C)CC8=O)ccc6C(N)=O)cc5)CC4)CC3)CC2)ccc1Nc1ncc2c(n1)N(S(C)(=O)=O)c1ccccc1C(=O)N2C` [Compound 138, 4-(6,6-dimethyl-4-oxo-3-(trifluoromethyl)-4,5,6,7-tetrahydro-1H-indazol-1-yl)-2-((4-(2-(4-((1-(1-(3-ethoxy-4-((5-methyl-11-(methylsulfonyl)-6-oxo-6,11-dihydro-5H-benzo[e]pyrimido[5,4-b][1,4]diazepin-2-yl)amino)phenyl)piperidine-4-carbonyl)piperidin-4-yl)methyl)piperazin-1-yl)ethoxy)phenyl)amino)benzamide], in test [1], the IC50 is more than 1000 nM. In test [2], this compound displayed an EC50 of 100 to 1000 nM.

As to `CCOc1cc(N2CCC(C(=O)N3CCC(CN4CCN(Cc5ccc(-n6c(C(=O)NC(C)C(F)(F)F)nnc6-c6cc(CC)c(O)cc6O)cc5)CC4)CC3)CC2)ccc1Nc1ncc2c(n1)N(S(C)(=O)=O)c1ccccc1C(=O)N2C` (stereo not drawn) [Compound 107, 4-(4-((4-((1-(1-(3-ethoxy-4-((5-methyl-11-(methylsulfonyl)-6-oxo-6,11-dihydro-5H-benzo[e]pyrimido[5,4-b][1,4]diazepin-2-yl)amino)phenyl)piperidine-4-carbonyl)piperidin-4-yl)methyl)piperazin-1-yl)methyl)phenyl)-5-(5-ethyl-2,4-dihydroxyphenyl)-N-(1,1,1-trifluoropropan-2-yl)-4H-1,2,4-triazole-3-carboxamide], the IC50 in test [1] was in the range of 100 to 1000 nM. In test [2], this compound showed an EC50 of less than 100 nM.

Compound `CCOc1cc(N2CCC(C(=O)NCCOCCOCCOCCOc3ccc(Nc4cc(-n5nc(C(F)(F)F)c6c5CC(C)(C)CC6=O)ccc4C(N)=O)cc3)CC2)ccc1Nc1ncc2c(n1)N(S(C)(=O)=O)c1ccccc1C(=O)N2C` [Compound 140, N-(2-(2-(2-(2-(4-((2-carbamoyl-5-(6,6-dimethyl-4-oxo-3-(trifluoromethyl)-4,5,6,7-tetrahydro-1H-indazol-1-yl)phenyl)amino)phenoxy)ethoxy)ethoxy)ethoxy)ethyl)-1-(3-ethoxy-4-((5-methyl-11-(methylsulfonyl)-6-oxo-6,11-dihydro-5H-benzo[e]pyrimido[5,4-b][1,4]diazepin-2-yl)amino)phenyl)piperidine-4-carboxamide] registered an IC50 in test [1] of more than 1000 nM. Besides, the EC50 in test [2] fell in the range of 100 to 1000 nM.
